Experimental data published in DBAASP.
≈ marks a conversion by molar mass, not a printed value.

What was measured:
Assay in all cases: ≥ marks a high value that may be exact or a test limit, other limits are often not marked, values filed in µg/mL are converted to µM
[1] = tested on: Bacillus megaterium ATCC 10778
Candida albicans MDM8 = tested on: Candida albicans MDM8
[2] = tested on: Candida tropicalis IOC 4560
[3] = tested on: Enterobacter cloacae beta-12
Escherichia coli SBS 363 = tested on: Escherichia coli SBS 363
Micrococcus luteus A270 = tested on: Micrococcus luteus A270
[4] = tested on: Serratia marcescens ATCC 4112
[5] = tested on: Staphylococcus aureus ATCC 29213
[6] = tested on: Staphylococcus epidermidis ATCC 12228
[7] = tested on: Mannheimia haemolytica 82-25
[8] = tested on: Lacticaseibacillus casei ATCC 4646
[9] = tested on: Pseudomonas aeruginosa PAK
Staphylococcus aureus = tested on: Staphylococcus aureus
[10] = tested on: Streptococcus gordonii Challis DL1
[11] = tested on: Streptococcus mitis ATCC 903
Streptococcus mutans = tested on: Streptococcus mutans
[12] = tested on: Streptococcus sanguinis NY101
[13] = tested on: Veillonella atypica PK1910
[14] = tested on: Bordetella bronchiseptica CUN 11844-99
[15] = tested on: Escherichia coli ATCC 25922
[16] = tested on: Pseudomonas aeruginosa CUN 4158-02
[17] = tested on: Staphylococcus aureus ATCC 25923
Acinetobacter baumannii = tested on: Acinetobacter baumannii
[18] = tested on: Bacillus cereus CGMCC 1.932
[19] = tested on: Bacillus subtilis CMCC 63501
[20] = tested on: Enterococcus faecalis ATCC 29212
Escherichia coli 078 = tested on: Escherichia coli 078
Escherichia coli K88 = tested on: Escherichia coli K88
Escherichia coli K99 = tested on: Escherichia coli K99
Escherichia coli UB1005 = tested on: Escherichia coli UB1005
[21] = tested on: Listeria monocytogenes CGMCC 1.1075
[22] = tested on: Pseudomonas aeruginosa ATCC 27853
[23] = tested on: Pseudomonas aeruginosa PAO1
[24] = tested on: Salmonella enterica subsp. enterica serovar Pullorum ATCC 7913
[25] = tested on: Salmonella enterica subsp. enterica serovar Typhimurium ATCC 14028
[26] = tested on: Salmonella typhimurium ATCC 7731
[27] = tested on: Staphylococcus aureus ATCC 43300
Fusarium oxysporum = tested on: Fusarium oxysporum
Micrococcus luteus = tested on: Micrococcus luteus

MIC [6] [µM] | MIC [17] [µM] | MIC (Acinetobacter baumannii) [µM] | MIC [18] [µM] | MIC [19] [µM] | MIC [20] [µM] | MIC (Escherichia coli 078) [µM] | MIC (Escherichia coli K88) [µM] | MIC (Escherichia coli K99) [µM] | MIC (Escherichia coli UB1005) [µM] | MIC [21] [µM] | MIC [22] [µM] | MIC [23] [µM] | MIC [24] [µM] | MIC [25] [µM] | MIC [26] [µM] | MIC [27] [µM] | Structure (SMILES) | further results
3.1 (≈ 4.89 µg/mL) |  |  |  |  |  |  |  |  |  |  |  |  |  |  |  |  | CC(C)C[C@H](NC(=O)[C@H](C)NC(=O)[C@H](CCCCN)NC(=O)[C@H](CC(C)C)NC(=O)[C@@H](N)Cc1ccccc1)C(=O)N[C@@H](Cc1c[nH]c2ccccc12)C(=O)N[C@@H](CCCCN)C(=O)N[C@H](C(=O)N[C@@H](C)C(=O)N[C@@H](CCCCN)C(=O)N[C@@H](CCCCN)C(=O)N[C@H](C(=O)N[C@@H](Cc1ccccc1)C(N)=O)C(C)C)C(C)C [FLKALWKVAKKVF] | MIC [1]: 0.4 µM (≈ 0.631 µg/mL); MIC (Candida albicans MDM8): 1.6 µM (≈ 2.52 µg/mL); MIC [2]: 0.8 µM (≈ 1.26 µg/mL); MIC [3]: 3.1 µM (≈ 4.89 µg/mL); MIC (Escherichia coli SBS 363): 1.6 µM (≈ 2.52 µg/mL); MIC (Micrococcus luteus A270): 0.4 µM (≈ 0.631 µg/mL); MIC [4]: 0.1 µM (≈ 0.158 µg/mL); MIC [5]: 0.8 µM (≈ 1.26 µg/mL)
 |  |  |  |  |  |  |  |  |  |  |  |  |  |  |  |  | NCC(=O)N[C@@H](CC(=O)O)C(=O)N[C@@H](CC(=O)O)C(=O)N[C@@H](CC(=O)O)C(=O)N[C@@H](CC(=O)O)C(=O)N[C@@H](CC(=O)O)C(=O)N[C@@H](CC(=O)O)C(=O)O [GDDDDDD] | MIC [7]: ≥ 60 µM
 |  |  |  |  |  |  |  |  |  |  |  |  |  |  |  |  | CC[C@H](C)[C@H](N)C(=O)N[C@@H](CCCCN)C(=O)N[C@@H](CCC(N)=O)C(=O)N[C@@H](CC(C)C)C(=O)N[C@@H](CC(C)C)C(=O)N[C@@H](Cc1cnc[nH]1)C(=O)N[C@@H](Cc1ccccc1)C(=O)N[C@@H](Cc1ccccc1)C(=O)N[C@@H](CCC(N)=O)C(=O)N[C@@H](CCCN=C(N)N)C(=O)N[C@@H](Cc1ccccc1)C(N)=O [IKQLLHFFQRF] | MIC [8]: 21.7 µM (≈ 32 µg/mL); MIC [9]: ≥ 42.3 µM; MIC (Staphylococcus aureus): 42.3 µM (≈ 62.5 µg/mL); MIC [10]: 21.7 µM (≈ 32 µg/mL); MIC [11]: ≥ 42.8 µM; MIC (Streptococcus mutans): 16.3 µM (≈ 24 µg/mL); MIC [12]: ≥ 42.8 µM; MIC [13]: ≥ 43.3 µM
 |  |  |  |  |  |  |  |  |  |  |  |  |  |  |  |  | NC(=O)[C@H](Cc1ccccc1)NC(=O)[C@H](Cc1c[nH]c2ccccc12)NC(=O)[C@H](Cc1c[nH]c2ccccc12)NC(=O)[C@H](Cc1c[nH]c2ccccc12)NC(=O)[C@H](CCCN=C(N)N)NC(=O)[C@H](CCCN=C(N)N)NC(=O)[C@@H](N)CCCN=C(N)N [RRRWWWF] | MIC [8]: 13.4 µM (≈ 16 µg/mL); MIC [10]: 26.8 µM (≈ 32 µg/mL); MIC [11]: 26.8 µM (≈ 32 µg/mL); MIC (Streptococcus mutans): 4.74 µM (≈ 5.65 µg/mL); MIC [12]: 13.4 µM (≈ 16 µg/mL); MIC [13]: ≥ 53.7 µM
 | 26.1 (≈ 64 µg/mL) |  |  |  |  |  |  |  |  |  |  |  |  |  |  |  | CC(C)C[C@H](NC(=O)CNC(=O)[C@H](CCCCN)NC(=O)[C@H](Cc1ccccc1)NC(=O)[C@H](CCCCN)NC(=O)[C@H](Cc1c[nH]c2ccccc12)NC(=O)[C@H](CCCN=C(N)N)NC(=O)[C@H](Cc1ccccc1)NC(=O)[C@H](CCCN=C(N)N)NC(=O)[C@H](CCCN=C(N)N)NC(=O)[C@H](Cc1ccc(O)cc1)NC(=O)[C@H](CCCCN)NC(=O)[C@H](CCCCN)NC(=O)CN)C(=O)N[C@@H](Cc1ccccc1)C(=O)N[C@@H](CC(C)C)C(=O)N[C@@H](Cc1ccccc1)C(=O)N[C@@H](CC(C)C)C(=O)NCC(N)=O [GKKYRRFRWKFKGLFLFLG] | MIC [14]: 6.54 µM (≈ 16 µg/mL); MIC [15]: 26.1 µM (≈ 64 µg/mL); MIC [16]: 26.1 µM (≈ 64 µg/mL)
 |  |  |  |  |  |  |  |  |  |  |  |  |  |  |  |  | C[C@H](N)C(=O)N[C@@H](CC(=O)O)C(=O)N[C@@H](CC(=O)O)C(=O)N[C@@H](CC(=O)O)C(=O)N[C@@H](CC(=O)O)C(=O)N[C@@H](CC(=O)O)C(=O)N[C@@H](CC(=O)O)C(=O)O [ADDDDDD] | MIC [7]: ≥ 50 µM
2 (≈ 3.52 µg/mL) | 2 (≈ 3.52 µg/mL) | 2 (≈ 3.52 µg/mL) | 4 (≈ 7.04 µg/mL) | 8 (≈ 14.1 µg/mL) | 4 (≈ 7.04 µg/mL) | 2 (≈ 3.52 µg/mL) | 2 (≈ 3.52 µg/mL) | 8 (≈ 14.1 µg/mL) | 4 (≈ 7.04 µg/mL) | 1 (≈ 1.76 µg/mL) | 32 (≈ 56.3 µg/mL) | 4 (≈ 7.04 µg/mL) | 4 (≈ 7.04 µg/mL) | 8 (≈ 14.1 µg/mL) | 8 (≈ 14.1 µg/mL) | 2 (≈ 3.52 µg/mL) | NC(=O)[C@H](Cc1c[nH]c2ccccc12)NC(=O)[C@H](CCCN=C(N)N)NC(=O)[C@H](Cc1c[nH]c2ccccc12)NC(=O)[C@H](CCCN=C(N)N)NC(=O)[C@H](Cc1c[nH]c2ccccc12)NC(=O)[C@H](Cc1c[nH]c2ccccc12)NC(=O)[C@H](Cc1c[nH]c2ccccc12)NC(=O)[C@H](CCCN=C(N)N)NC(=O)[C@H](Cc1c[nH]c2ccccc12)NC(=O)[C@@H](N)CCCN=C(N)N [RWRWWWRWRW] | 
 |  |  |  |  |  |  |  |  |  |  |  |  |  |  |  |  | CC[C@H](C)[C@H](NC(=O)[C@@H]1CCCN1C(=O)[C@H](CC(C)C)NC(=O)[C@H](Cc1ccc(O)cc1)NC(=O)[C@H](CCCCN)NC(=O)[C@H](CCCCN)NC(=O)[C@H](CC(C)C)NC(=O)[C@H](C)NC(=O)[C@H](CO)NC(=O)[C@H](CC(C)C)NC(=O)[C@H](Cc1ccccc1)NC(=O)CN)C(=O)N[C@H](C(=O)N[C@@H](CC(C)C)C(=O)N[C@@H](CCCCN)C(=O)N[C@@H](Cc1cnc[nH]1)C(=O)N[C@H](C(=O)O)C(C)C)C(C)C [GFLSALKKYLPIVLKHV] | MIC (Escherichia coli SBS 363): 3.12 µM (≈ 6.02 µg/mL); MIC (Fusarium oxysporum): 0.78 µM (≈ 1.5 µg/mL); MIC (Micrococcus luteus): 1.56 µM (≈ 3.01 µg/mL)
4 (≈ 6.97 µg/mL) | 2 (≈ 3.49 µg/mL) | 2 (≈ 3.49 µg/mL) | 8 (≈ 13.9 µg/mL) | 4 (≈ 6.97 µg/mL) | 2 (≈ 3.49 µg/mL) | 4 (≈ 6.97 µg/mL) | 4 (≈ 6.97 µg/mL) | 8 (≈ 13.9 µg/mL) | 8 (≈ 13.9 µg/mL) | 1 (≈ 1.74 µg/mL) | 8 (≈ 13.9 µg/mL) | 8 (≈ 13.9 µg/mL) | 2 (≈ 3.49 µg/mL) | 4 (≈ 6.97 µg/mL) | 16 (≈ 27.9 µg/mL) | 4 (≈ 6.97 µg/mL) | CC[C@H](C)[C@H](NC(=O)[C@H](CCCN=C(N)N)NC(=O)[C@H](Cc1c[nH]c2ccccc12)NC(=O)[C@H](CCCN=C(N)N)NC(=O)[C@H](Cc1c[nH]c2ccccc12)NC(=O)[C@H](Cc1c[nH]c2ccccc12)NC(=O)[C@H](Cc1c[nH]c2ccccc12)NC(=O)[C@H](CCCN=C(N)N)NC(=O)[C@H](Cc1c[nH]c2ccccc12)NC(=O)[C@H](CCCN=C(N)N)NC(=O)CN)C(N)=O [GRWRWWWRWRI] | 
4 (≈ 6.69 µg/mL) | 4 (≈ 6.69 µg/mL) | 2 (≈ 3.34 µg/mL) | 16 (≈ 26.8 µg/mL) | 4 (≈ 6.69 µg/mL) | 4 (≈ 6.69 µg/mL) | 4 (≈ 6.69 µg/mL) | 4 (≈ 6.69 µg/mL) | 8 (≈ 13.4 µg/mL) | 8 (≈ 13.4 µg/mL) | 1 (≈ 1.67 µg/mL) | 16 (≈ 26.8 µg/mL) | 16 (≈ 26.8 µg/mL) | 4 (≈ 6.69 µg/mL) | 8 (≈ 13.4 µg/mL) | 8 (≈ 13.4 µg/mL) | 4 (≈ 6.69 µg/mL) | CC(C)[C@H](NC(=O)[C@H](CCCN=C(N)N)NC(=O)[C@H](Cc1c[nH]c2ccccc12)NC(=O)[C@H](CCCN=C(N)N)NC(=O)[C@H](Cc1c[nH]c2ccccc12)NC(=O)[C@H](Cc1c[nH]c2ccccc12)NC(=O)[C@H](Cc1c[nH]c2ccccc12)NC(=O)[C@H](CCCN=C(N)N)NC(=O)[C@H](Cc1c[nH]c2ccccc12)NC(=O)[C@@H](N)CCCN=C(N)N)C(N)=O [RWRWWWRWRV] | 
